By MIC is commonly meant the least concentration at which growth counts as inhibited.

≈ marks a conversion by molar mass, not a printed value. Where only a bound is given, the exact number is not on record here.

The assay concerns SA 9218. Put plainly: MIC by standard agar dilution method. It is filed as cell-based. To be noted: Mueller Hinton agar, 10^4 to 10^5 cells per spot, incubated overnight at 35° C., lowest concentration that inhibits visible growth. In a few lines: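 MIC read after overnight 35 °C incubation as lowest drug level preventing visible growth. Inoculum of roughly 10^4–10^5 cells per spot (0.5 McFarland, 1:20 in TSB) applied to Mueller Hinton agar containing serial 2-fold compound dilutions.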
Compound `O=C(Nc1ccc(Br)cc1C(=O)O)c1cccc(OCc2cccc([N+](=O)[O-])c2)c1` had an MIC of 16 µg/mL (≈ 34 µM).
On the same count and under the same terms, under `COc1ccc(C(=O)Nc2ccc(Br)cc2C(=O)O)cc1F` stands 16 µg/mL (≈ 43.5 µM); under `CCCCCCCCCCC(=O)NCc1ccc(C(=O)Nc2ccc(C#N)cc2C(=O)O)cc1S(=O)(=O)N1CCc2ccccc21` [PHA-738532], 32 µg/mL (≈ 49.6 µM); under `CCCOc1ccc(C(=O)Nc2ccc(C#N)cc2C(=O)O)cc1`, 16 µg/mL (≈ 49.3 µM).
Same read-out and setting: under `O=C(Nc1ccc(Cl)cc1C(=O)O)c1ccc(C(=NO)C2CCCO2)cc1` (stereo not shown) stands 32 µg/mL (≈ 82.3 µM).
For the compound `N#Cc1ccc(NC(=O)c2cccc(C(=NO)c3ccccc3)c2)c(C(=O)O)c1` [PHA-535548], the MIC was found to be 0.25 µg/mL (≈ 0.649 µM).
The same measure, in the same setting: under `CC(C)(C)N1C(=O)c2ccc(C(=O)Nc3ccc(C#N)cc3C(=O)O)cc2C1=O` [PHA-630726] stands 4 µg/mL (≈ 10.2 µM); under `CN(C1CCCCC1)S(=O)(=O)c1cccc(C(=O)Nc2ccc(C#N)cc2C(=O)O)c1` [PHA-571186], 128 µg/mL (≈ 290 µM); under `CCCOc1ccc(C(=O)Nc2ccc(Br)cc2C(=O)O)cc1`, 64 µg/mL (≈ 169 µM).
The same measure, in the same setting: under `CC(C)OCCOc1ccc(C(=O)Nc2ccc(Br)cc2C(=O)O)cc1` stands over 128 µg/mL; under `COc1ccc2ccn(S(=O)(=O)c3cccc(C(=O)Nc4ccc(C#N)cc4C(=O)O)c3)c2c1` [PHA-568424], 1 µg/mL (≈ 2.1 µM).
The same measure, in the same setting: under `O=C(Nc1ccc(Br)cc1C(=O)O)c1ccc(S(=O)(=O)n2ccc3cc(F)c(Cl)cc32)cc1` [PNU-291010] stands 1 µg/mL (≈ 1.81 µM); under `N#Cc1ccc(NC(=O)c2cccc(Nc3ccccc3)c2)c(C(=O)O)c1` [PHA-610938, 2-[(3-Anilinobenzoyl)amino]-5-cyanobenzoic acid], 1 µg/mL (≈ 2.8 µM).
The compound `O=C(Nc1ccc(Br)cc1C(=O)O)c1cc(S(=O)(=O)Nc2ccc(Cl)cc2)ccc1Br` came in with an MIC of 4 µg/mL (≈ 6.8 µM).
Take `CC(C(O)c1ccccc1)N(C)S(=O)(=O)c1ccc(C(=O)Nc2ccc(C#N)cc2C(=O)O)cc1` (stereo not shown) [PHA-571183]: the “SA 9218 MIC” value came to 32 µg/mL.
In turn, `O=C(Nc1ccccc1)Nc1ccc(C(=O)Nc2ccc(Br)cc2C(=O)O)cc1` [PHA-713393] yielded an MIC of over 128 µg/mL.
Still for that read-out and setting: under `COc1ccc(C(=O)Nc2ccc(Br)cc2C(=O)O)cc1S(=O)(=O)N1CCN(c2ccc(Cl)cc2)CC1` stands 8 µg/mL (≈ 13.1 µM).
Compound `O=C(Nc1ccccc1)Nc1cccc(C(=O)Nc2ccc(Br)cc2C(=O)O)c1` [PHA-708988] returned an MIC of 32 µg/mL (≈ 70.4 µM).
Compound `O=C(Nc1ccc(Br)cc1C(=O)O)c1ccc(OC(F)F)cc1` returned an MIC of 64 µg/mL (≈ 166 µM).
Still for that read-out and setting: under `COc1cc(C(=O)c2cccc(C(=O)Nc3ccc(Cl)cc3C(=O)O)c2)cc(OC)c1OC` stands 32 µg/mL (≈ 68.1 µM); under `Cc1ccc(C(=O)Nc2ccc(Br)cc2C(=O)O)cc1S(=O)(=O)N(C)c1ccc(Cl)cc1` [PNU-291571], 0.5 µg/mL (≈ 0.93 µM); under `N#Cc1ccc(NC(=O)c2ccc(S(=O)(=O)Nc3ccc4c(c3)CCC4)cc2)c(C(=O)O)c1` [PHA-571207], 32 µg/mL (≈ 69.3 µM).
With `O=C(Nc1ccc(/C=N/O)cc1C(=O)O)c1cccc(S(=O)(=O)N2CCOCC2)c1` [PHA-679756], the MIC was over 128 µg/mL.
On the same count and under the same terms, under `N#Cc1ccc(NC(=O)c2cccc3cccc(C=O)c23)c(C(=O)O)c1` stands over 128 µg/mL.
Still for that read-out and setting: under `O=C(Nc1cccc(C(=O)Nc2ccc(Br)cc2C(=O)O)c1)c1ccc2c(c1)OCO2` [PHA-708983] stands 32 µg/mL (≈ 66.2 µM); under `CCOc1cc(C(=O)Nc2ccc(C#N)cc2C(=O)O)cc(OCC)c1OCC`, 16 µg/mL (≈ 40.2 µM).
Still for that read-out and setting: under `COc1ccc(CCOc2cccc(C(=O)Nc3ccc(Br)cc3C(=O)O)c2)cc1` stands 32 µg/mL (≈ 68 µM).
Turning to `CC#CCOc1ccc(C(=O)Nc2ccc(Br)cc2C(=O)O)cc1`, the MIC was determined as 16 µg/mL (≈ 41.2 µM).
For `O=C(Nc1ccc(Cl)cc1C(=O)O)c1ccc(I)cc1`, the MIC amounted to 2 µg/mL (≈ 4.98 µM).
On the same count and under the same terms, under `O=C(Nc1ccc(-c2ccccc2)cc1C(=O)O)c1ccc(S(=O)(=O)N2CCc3ccccc32)cc1` [L-217792] stands 8 µg/mL (≈ 16 µM).
Turning to `CCCCCOc1ccc(C(=O)Nc2ccc(Br)cc2C(=O)O)cc1`, inhibition of growth (MIC) required 16 µg/mL (≈ 39.4 µM).
The same measure, in the same setting: under `CCCN(CCC)S(=O)(=O)c1ccc(C(=O)Nc2ccc(Cl)cc2C(=O)O)cc1Br` [PNU-291410] stands 4 µg/mL (≈ 7.72 µM); under `N#Cc1ccc(NC(=O)c2cccc(S(=O)(=O)N3CCCC3)c2)c(C(=O)O)c1` [PHA-543140], 1 µg/mL (≈ 2.5 µM).
As for `N#Cc1ccc(NC(=O)c2ccc3c(c2)OCO3)c(C(=O)O)c1`, the MIC worked out at 16 µg/mL (≈ 51.6 µM).
`CCN(CC)c1ccc(C(=O)Nc2ccc(Br)cc2C(=O)O)cc1` came in with an MIC of 32 µg/mL (≈ 81.8 µM).
Regarding `Cc1ccc(C(=O)Nc2ccc(Br)cc2C(=O)O)cc1S(=O)(=O)NCCc1ccc(N)cc1`, the MIC is 8 µg/mL (≈ 15 µM).
Regarding `CCCCCC(=O)c1cccc(C(=O)Nc2ccc(Cl)cc2C(=O)O)c1`, inhibition of growth (MIC) required 8 µg/mL (≈ 21.4 µM).
Regarding `CCCCCC(=O)c1ccc(C(=O)Nc2ccc(Cl)cc2C(=O)O)cc1`, the MIC amounted to 4 µg/mL (≈ 10.7 µM).
`COc1cc(C(=O)Nc2ccc(C#N)cc2C(=O)O)ccc1C` showed a minimal inhibitory concentration (MIC) of over 128 µg/mL.
Still for that read-out and setting: under `Cc1noc(C)c1-c1ccc(NC(=O)c2cccc(S(=O)(=O)N3CCc4cc(Cl)ccc43)c2)c(C(=O)O)c1` [PHA-569977] stands 16 µg/mL (≈ 29 µM); under `O=C(Nc1ccc(Br)cc1C(=O)O)c1ccc(S(=O)(=O)n2ccc3cc(Cl)ccc32)cc1` [PNU-290905], 1 µg/mL (≈ 1.87 µM).
With `N#Cc1ccc(NC(=O)c2cccc3c2C(=O)c2ccccc2-3)c(C(=O)O)c1`, the MIC is over 128 µg/mL.
Still for that read-out and setting: under `CCCCN(CC#N)S(=O)(=O)c1cccc(C(=O)Nc2ccc(C#N)cc2C(=O)O)c1` [PHA-571237] stands 16 µg/mL (≈ 36.3 µM); under `Cc1ncsc1CCOc1cccc(C(=O)Nc2ccc(Br)cc2C(=O)O)c1`, 8 µg/mL (≈ 17.3 µM).
`COc1cc(COc2ccc(C(=O)Nc3ccc(Br)cc3C(=O)O)cc2)ccc1[N+](=O)[O-]`: inhibition of growth (MIC) required 8 µg/mL (≈ 16 µM).
On the same count and under the same terms, under `O=C(Nc1ccc(Br)cc1C(=O)O)c1cccc(S(=O)(=O)N2CCCC2)c1` [PHA-568378] stands 2 µg/mL (≈ 4.41 µM).
Still for that read-out and setting: under `COc1ccc(C(=O)Nc2ccc(Br)cc2C(=O)O)cc1[N+](=O)[O-]` stands 32 µg/mL (≈ 81 µM).
The same measure, in the same setting: under `COc1cc(COc2cccc(C(=O)Nc3ccc(Br)cc3C(=O)O)c2)cc(OC)c1` stands 16 µg/mL (≈ 32.9 µM); under `COc1ccc(Br)c(C(=O)Nc2ccc(C#N)cc2C(=O)O)c1` [PHA-571153], 64 µg/mL (≈ 171 µM); under `CC1CC(C)CN(S(=O)(=O)c2cccc(C(=O)Nc3ccc(C#N)cc3C(=O)O)c2)C1` (stereo not shown) [PHA-571243], 4 µg/mL (≈ 9.06 µM).
The compound `O=C(Nc1ccc(Br)cc1C(=O)O)c1ccc(NS(=O)(=O)c2ccc(OC(F)(F)F)cc2)cc1` [PHA-708996] returned an MIC of 16 µg/mL (≈ 28.6 µM).
`CN(c1ccc(Cl)cc1)S(=O)(=O)c1cc(C(=O)Nc2ccc(Br)cc2C(=O)O)ccc1Br` [PNU-291679] had an MIC of 1 µg/mL (≈ 1.66 µM).
As to `O=C(Nc1cccc(C(=O)Nc2ccc(Br)cc2C(=O)O)c1)c1ccccc1` [PHA-708976], the MIC was found to be 32 µg/mL (≈ 72.8 µM).
`O=C(Nc1ccc(Oc2ccccc2)cc1)Nc1cccc(C(=O)Nc2ccc(Br)cc2C(=O)O)c1` [PHA-713399]: it took 16 µg/mL (≈ 29.3 µM) to inhibit growth (MIC).
`O=C(Nc1ccc(-c2ccc(Cl)cc2)cc1C(=O)O)c1cccc(S(=O)(=O)N2CCOCC2)c1` [PHA-656820] came in with an MIC of over 128 µg/mL.
The same measure, in the same setting: under `O=C(Nc1ccc(Br)cc1C(=O)O)c1cccc(OCc2cccc(C(F)(F)F)c2)c1` stands 64 µg/mL (≈ 129 µM); under `N#Cc1ccc(NC(=O)c2cccc(S(=O)(=O)N3CCN(c4ccc(F)cc4)CC3)c2)c(C(=O)O)c1` [PHA-571230], 16 µg/mL (≈ 31.5 µM).
Still for that read-out and setting: under `COc1ccc(C(=O)Nc2ccc(C#N)cc2C(=O)O)cc1OC` stands 64 µg/mL (≈ 196 µM).

Values taken from patent publication US20050113450A1, “Antibacterial agents” (priority 2002, published 2005).
